From publication PMC5856786, “A DHODH inhibitor increases p53 synthesis and enhances tumor cell killing by p53 degradation blockage” (Nature Communications, 2018)
Read-outs that look alike come from different tables or passages of the source.

Legend:
[1] = test system: H1299 p53-null xenograft tumors; assay: H1299 p53-null xenograft; assay type: in vivo, mice
Description: Error bars illustrate ± SEM with significance determined by Multiple Student’s t-tests. […] See supplementary information for detailed description of protocol. d) Pharmacokinetic study examining the effect of co-administration of nutlin-3a and (R)-HZ05 on the plasma concentration of nutlin-3a over time. See supplementary information for detailed description of protocol. e) In vivo activity of (R)- HZ05 alone and in combination with nutlin-3 on H1299 p53-null xenograft tumors (n ≥ 6). […] In the tumor volume graph, (**) on day 4 indicates a statistical difference of Control to HZ05 and to nutlin-3a; (*) on day 7 indicates a difference between Control and nutlin-3a; and (**) on day 12 indicates a statistical difference between Control, […] 19

recombinant human DHODH = recombinant human DHODH (Homo sapiens, UniProt Q02127); assay: Kinetic DHODH enzyme assay (3,4-dimethoxy-5-methyl-p-benzoquinone, DCIP); assay type: biochemical; set-up: made in house; conditions: Fig. 5a; average of three independent repeats ± SD
Sequence of recombinant human DHODH (Q02127 29-395 limits assumed): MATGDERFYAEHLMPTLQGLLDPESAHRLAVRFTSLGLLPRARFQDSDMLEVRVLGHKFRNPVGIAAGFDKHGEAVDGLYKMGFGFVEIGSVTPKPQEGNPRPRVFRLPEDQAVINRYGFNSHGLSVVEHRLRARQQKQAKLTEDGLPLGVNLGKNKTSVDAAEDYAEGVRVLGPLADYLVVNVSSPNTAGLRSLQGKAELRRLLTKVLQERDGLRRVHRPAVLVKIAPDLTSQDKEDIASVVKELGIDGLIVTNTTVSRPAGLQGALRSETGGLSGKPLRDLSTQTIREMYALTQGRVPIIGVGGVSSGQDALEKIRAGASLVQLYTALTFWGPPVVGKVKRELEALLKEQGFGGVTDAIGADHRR
Experimental: In Fig. 5a enzyme assays were optimized and performed with 6 nM recombinant human DHODH prepared as described. The reaction mixture for these kinetic assays consisted of 1 mM DL-dihydroorotic acid, 100 µM 3,4-dimethoxy-5-methyl-p-benzoquinone (#D9150, Sigma-Aldrich), and 100 µM DCIP in enzyme buffer. A stock solution of 20 mM DCIP was prepared in enzyme buffer and filtered through filter paper (20–25 μm pore size) just before use. Loss in absorbance by DCIP was measured at 595 nm at RT in a stepped time course (8 × 2 min, 8 × 3 min, 6 × 5 min). […] Therefore, for each concentration of inhibitor tested, a value for DHODH’s Vmax was estimated by linear regression within this time frame.

[2] = In vivo pharmacokinetic parameters of (R)-HZ05; set-up: species or system C57B1/6N mice; conditions: for AUC(0-inf) / Cmax / Tmax / AUC / half-life / BA (%): mice; for AUC: read-out: AUC 0-h; for half-life: read-out: t (h) (half-life) (converted)
Experimental: Waters Acquity UPLC (Waters Corp.) was used for all LC/MS and LC/MS/MS experiments. For chromatographic separation a general gradient was used (5 % mobile phase B to 90 % over 2 min total run) on a C18 BEH 1.7 µm column 2 × 50 mm (Waters Corp.). Mobile phase A consisted of 5 % acetonitrile 0.1 % formic acid and mobile phase B 100 % acetonitrile 0.1 % formic acid. The flow rate was 0.5 mL min-1 and 3 µL of the sample was injected. A standard curve between 3−1000 nM was prepared for each compound. […]
In vivo Pharmacokinetic Parameter Determination
(R)-HZ05 was formulated for subcutaneous and oral administration at 5 mg mL-1 in 20 % hydroxypropyl-β-cyclodextrin in PBS and formulated at 5 mg mL-1 diluted in physiological NaCl. […]
Blood was collected […]
in EDTA tubes from three mice per time point and stored on ice with plasma separated within 30 min by centrifugation at 2000 g and stored at –80 ° C until analysis at 0.08, 0.25, 0.5, 1, 2, 3, 4, 6 and 24 h post administration. […] internal standard (9 nM warfarin) was added to each plasma sample and each sample was shaken at RT for 10 min followed by centrifugation at 2000 g for 30 min at 4 °C. […] of sample was injected into an Acquity UPLC coupled to a triple quadrupole mass spectrometer (Waters) operated in MRM mode with positive electrospray ionization. MRM transition 381.09 > […]
CV and 40 V for CE) as a qualifier ion. Transition for internal standard was 309.16 > 163.005 (22 V for CV and 14 V for CE). Ion source conditions were: capillary voltage, 2000 V; desolvation temperature, 500 °C; desol vation gas flow rate, 1000 L h-1. Separation was conducted using a BEH C18 column (2.1 × 50 mm, 1.7 µm, Waters) using a linear gradient: 0 – 0.5 min, 5 % B; […], 100 % B, 1.61–2.00 min, 5 % B. Mobile phase A was 5 % acetonitrile with 0.1 % formic acid and B […]
All animal experimentation was carried out by Sweden
Contract In vivo Design AB in compliance with 2010/63/EU directive and approved by Stockholms Norra Djurförsöksetiska Nämnd (laboratory animal eth ical committee Stockholm) with the approval number N61/15. Any single plasma concentration value deviated by >10 times from the other two values was excluded from the pharmacokinetic evaluation, but was included in the figure. […]

[3] = Pharmacokinetic study, nutlin-3 single or co-administered with (R)-HZ00; assay type: in vivo, NOD-SCID mice; conditions: mice; nutlin-3 100 mg kg-1 oral + (R)-HZ00 150 mg kg-1 i.p.
Experimental: Waters Acquity UPLC (Waters Corp.) was used for all LC/MS and LC/MS/MS experiments. For chromatographic separation a general gradient was used (5 % mobile phase B to 90 % over 2 min total run) on a C18 BEH 1.7 µm column 2 × 50 mm (Waters Corp.). Mobile phase A consisted of 5 % acetonitrile 0.1 % formic acid and mobile phase B 100 % acetonitrile 0.1 % formic acid. The flow rate was 0.5 mL min-1 and 3 µL of the sample was injected. A standard curve between 3−1000 nM was prepared for each compound.
Cocrystallization, data collection and structure determination of DHODH with inhibitor HZ05 Co-crystals were prepared similar to previously described6. In short 18 mg mL-1 DHODH (dissolved in 10 mM N,N-dimethylundecylamine N-oxide (C11DAO) (Fluka), 400 mM NaCl, 1 mM EDTA, 100 mM HEPES (pH 7), and 30 % glycerol) was mixed in a 1:1 ratio with 2 M NH4SO4, 0.1 M Na Acetate pH 4.8, 30 mM N,N-dimethyldodecylamine N-oxide (DDAO), 15 mM C11DAO, 2 mM L-dihydroorotic acid, 1 mM HZ05 and 6 % DMSO. The crystals did grow from hanging drops at 20°C in a VDX plate; 2.5 µL protein solution mixed with 2.5 µL reservoir (30 % (v/v) glycerol, 0.1 M Na acetate pH 4.8 and 2 M NH4SO4). A crystal was flashfrozen in liquid nitrogen and data was collected to 1.7 Å at Diamond Light Source beamline i02. The structure was determined using Molecular Replacement and refined in Refmac57. […]

ARN8 xenograft = assay: ARN8 subcutaneous xenograft; assay type: in vivo; conditions: mice; (R)-HZ00 150 mg kg−1 i.p. q.d.; nutlin-3 100 mg kg−1 p.o. q.d.
Experimental: All animal xenograft experiments were approved by the Norwegian Animal Research Authority and conducted according to The European Convention for the Protection of Vertebrates Used for Scientific Purposes. […] The health status and weight of the mice were monitored daily and they were randomized in a non-blinded manner into 4 groups when tumor volumes reached 30–40 mm^3. […] Tumor volumes were measured every second day by a digital caliper using the following ellipsoid formula: Volume = π (length × width × height)/6.
To determine the efficacy of (R)-HZ05 in combination with nutlin-3a, 4 groups of NSG mice (n = 8 per group) were subcutaneously injected in the flank region with a single 100 μL injection of 2 × 10^6 ARN8 cells in a solution of PBS:Matrigel (volume ratio 3:1). Treatment was initiated when tumors reached ~50 mm^3. The maximum tolerated dose for this combination of drugs was previously determined for the strain we used. The endpoint of the experiment was determined by the tumor size ([…]) weight loss, and general condition of the mice according to The Norwegian Animal Research Authority.

[4] = female, C57B1/6N, mouse, plasma, iv, i.v, dose 5 mg kg-1
[5] = female, C57B1/6N, mouse, plasma, po, p.o, dose 50 mg kg-1
[6] = female, C57B1/6N, mouse, plasma, sc, s.c, dose 50 mg kg-1

SMILES: O=C(N[C@@H]1CCCc2c1cnn2-c1ccccc1F)c1onc2c1CCCC2 [(R)-HZ05]
- synergy with nutlin-3a in p53-null xenograft [1]: no synergy
- IC50 (recombinant human DHODH): 11 ± 0.94 nM
- clearance ([2]; female, C57B1/6N, mouse, plasma, iv, 5 mg kg-1, mice, i.v): 90 mL/min/kg
- Vd ([2]; female, C57B1/6N, mouse, plasma, iv, 5 mg kg-1, mice, i.v, read-out: Vd): 8.3 L/kg
- Vd ([2]; female, C57B1/6N, mouse, plasma, iv, 5 mg kg-1, mice, i.v, read-out: Vss): 3.6 L/kg
- AUC(0-inf) [2, 4]: 2.4 µM·h
- Cmax [2, 4]: 6.1 µM
- Tmax [2, 4]: 4.8 min
- AUC [2, 4]: 2.4 µM·h
- half-life [2, 4]: 1.1 h
- AUC(0-inf) [2, 5]: 9.9 µM·h
- Cmax [2, 5]: 7.5 µM
- Tmax [2, 5]: 15 min
- AUC [2, 5]: 9.9 µM·h
- half-life [2, 5]: 2.9 h
- AUC(0-inf) [2, 6]: 30 µM·h
- Cmax [2, 6]: 14.9 µM
- Tmax [2, 6]: 30 min
- AUC [2, 6]: 30 µM·h
- half-life [2, 6]: 2.5 h
- BA (%) ([2]; p.o, dose 50 mg kg-1): 41%
- BA (%) ([2]; s.c, dose 50 mg kg-1): > 100%

SMILES: COc1ccc(C2=N[C@@H](c3ccc(Cl)cc3)[C@@H](c3ccc(Cl)cc3)N2C(=O)N2CCNC(=O)C2)c(OC(C)C)c1 [nutlin-3, reference compound]
- half-life on co-administration with (R)-HZ00 [3]: not prolonged
- toxicity in xenograft study (ARN8 xenograft): treatments had to be discontinued after 9 days due to the toxicity
